11 molecules from ChEMBL document CHEMBL1201862, “PubChem BioAssay data set” (2004) can be followed below.

The target in series [1] is Cytochrome P450 2C19 (Homo sapiens, UniProt P33261). As to the kind of experiment: Cytochrome panel assay with activity outcomes. Panel member name: p450-cyp2c19 Compounds with AC50 equal or less than 10 uM are considered active. In kind it is functional.
Series [2] has as its target T1, Cytochrome P450 1A2 (Homo sapiens, UniProt P05177).
T1 sequence (P05177 whole entry): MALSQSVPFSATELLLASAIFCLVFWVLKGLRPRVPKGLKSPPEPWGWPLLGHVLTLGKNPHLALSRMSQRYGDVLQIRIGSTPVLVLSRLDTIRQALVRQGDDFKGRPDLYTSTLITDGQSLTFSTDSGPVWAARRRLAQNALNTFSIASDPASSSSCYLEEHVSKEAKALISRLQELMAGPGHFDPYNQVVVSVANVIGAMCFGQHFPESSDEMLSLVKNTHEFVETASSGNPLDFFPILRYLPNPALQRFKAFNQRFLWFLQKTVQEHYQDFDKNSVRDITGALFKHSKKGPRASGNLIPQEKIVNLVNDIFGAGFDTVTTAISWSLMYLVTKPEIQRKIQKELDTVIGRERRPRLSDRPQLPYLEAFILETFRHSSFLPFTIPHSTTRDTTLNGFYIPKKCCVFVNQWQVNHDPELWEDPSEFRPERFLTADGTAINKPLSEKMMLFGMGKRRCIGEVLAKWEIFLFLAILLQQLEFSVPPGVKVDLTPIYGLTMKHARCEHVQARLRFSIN

In series [3] the target is Cytochrome P450 2D6 (Homo sapiens, UniProt P10635).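 Further: CYP2D6 member of a cytochrome P450 panel assay.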
Series [4] deals with T2, Cytochrome P450 3A4 (Homo sapiens, UniProt P08684).
For series [5], the target named is Delta-type opioid receptor (Homo sapiens, UniProt P41143). As to the kind of experiment: Counterscreen for agonists of heterodimerization of the mu 1 (OPRM1) and delta 1 (OPRD1) opioid receptors: Luminescence-based cell-based high throughput dose response assay to identify agonists of OPRD1 homodimerization. [Related pubchem assays (depositor defined):AID504326, AID504355, AID504692, AID504904, AID504905]. In kind it is functional. A general note: Counterscreens check selectivity or assay interference.

Series [6] has as its target Mu-type opioid receptor (Homo sapiens, UniProt P35372). As to the kind of experiment: Counterscreen for agonists of heterodimerization of the mu 1 (OPRM1) and delta 1 (OPRD1) opioid receptors: Luminescence-based cell-based high throughput dose response assay to identify agonists of OPRM1 homodimerization. In kind it is functional.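 Further: U2OS cells expressing OPRM1 and beta-arrestin as split beta-galactosidase partners.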
In series [7] the target is 5-hydroxytryptamine receptor 5A (Homo sapiens, UniProt P47898). As to the kind of experiment: Counterscreen for agonists of OPRM1-OPRD1 heterodimerization: luminescence-based cell-based high throughput dose response assay to identify agonists of 5-hydroxytryptamine (serotonin) 5A receptor (HTR5A). [Related pubchem assays (depositor defined):AID504326, AID504355, AID504692, AID504904, AID504905]. In kind it is functional.

The nature of series [8]: luciferase reporter signal suppression in cells – H4 neuroglioma cells, luminescence, dose response (AID 1990). In kind it is functional, cell-based.
Series [9] relates to HEK293. In words: inhibition of NOD1-driven NF-kB reporter – cell-based, luminescence, uHTS, primary screen (AID 1578). In kind it is functional. As to conditions: Homo sapiens.
Series [10] concerns HEK293. As to the kind of experiment: cells. In kind it is functional, cell-based. The note with it: Homo sapiens.
Series [11] is described as follows: Luminescence Cell-Based Dose Response HTS to Identify Inhibitors of 5'UTR Stem-Loop Driven Prion Protein mRNA Translation in H4 Neuroglioblastoma Cells. [Related pubchem assays: 1827 (Project Summary), 1813 (Primary HTS)]. In kind it is functional.
A short description of series [12]: alpha-synuclein stem-loop luciferase translation blockers – H4 neuroglioma cells, luminescence, confirmation (AID 1988). In kind it is functional, cell-based.
For series [13], the system named is HEK293. As to the kind of experiment: cells. In kind it is functional, cell-based. As to conditions: Homo sapiens. This is another data set of the same source.
Series [14] has as its target Nucleotide-binding oligomerization domain-containing protein 2 (Homo sapiens, UniProt Q9HC29). In words: inhibition of NOD2-driven NF-kB reporter – cell-based, luminescence, uHTS, HEK293 (AID 1566). In kind it is functional.
Series [15] deals with HEK293. As to the kind of experiment: NOD2 signaling inhibitors in MDP-stimulated cells, cell-based, uHTS, luminescence (AID 2001). In kind it is functional. As to conditions: Homo sapiens.
The subject of series [16] is HEK293. In words: cells. In kind it is functional, cell-based. As to conditions: Homo sapiens. This is another data set of the same source.
Series [17] deals with Tumor necrosis factor (Homo sapiens, UniProt P01375). As to the kind of experiment: analog potency on TNFa NF-kB signaling – cell-based, revised, SAR follow-up (AID 2337). In kind it is functional.
Series [18] addresses T3, Nucleotide-binding oligomerization domain-containing protein 1 (Homo sapiens, UniProt Q9Y239).
T3 sequence (Q9Y239 whole entry): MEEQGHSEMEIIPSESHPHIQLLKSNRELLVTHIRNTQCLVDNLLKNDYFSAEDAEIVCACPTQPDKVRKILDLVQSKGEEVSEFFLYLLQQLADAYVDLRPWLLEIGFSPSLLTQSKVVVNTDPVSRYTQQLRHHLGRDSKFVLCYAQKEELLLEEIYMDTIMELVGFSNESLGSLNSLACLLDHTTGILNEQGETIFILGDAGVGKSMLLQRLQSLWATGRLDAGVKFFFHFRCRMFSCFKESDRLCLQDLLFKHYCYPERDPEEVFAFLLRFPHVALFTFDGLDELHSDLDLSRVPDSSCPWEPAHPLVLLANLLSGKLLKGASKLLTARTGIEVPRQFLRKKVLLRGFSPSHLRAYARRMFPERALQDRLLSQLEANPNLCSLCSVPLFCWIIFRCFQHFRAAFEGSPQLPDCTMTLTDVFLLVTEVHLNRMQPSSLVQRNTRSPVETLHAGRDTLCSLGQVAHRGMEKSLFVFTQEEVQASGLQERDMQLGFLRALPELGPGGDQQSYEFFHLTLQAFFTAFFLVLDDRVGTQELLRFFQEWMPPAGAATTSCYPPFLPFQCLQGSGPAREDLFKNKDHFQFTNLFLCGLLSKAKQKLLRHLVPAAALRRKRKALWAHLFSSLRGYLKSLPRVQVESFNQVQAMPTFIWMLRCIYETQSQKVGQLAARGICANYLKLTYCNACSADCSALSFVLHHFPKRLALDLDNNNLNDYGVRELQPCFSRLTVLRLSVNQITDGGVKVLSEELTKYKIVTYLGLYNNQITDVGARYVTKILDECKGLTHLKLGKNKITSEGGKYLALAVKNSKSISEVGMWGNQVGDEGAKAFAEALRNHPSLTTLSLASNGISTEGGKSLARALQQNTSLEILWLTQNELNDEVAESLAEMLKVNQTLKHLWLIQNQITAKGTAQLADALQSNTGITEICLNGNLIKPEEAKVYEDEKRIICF
In words: blockers of NOD1 pathway activity – revised, SAR follow-up (AID 2333). In kind it is functional.

Series [19] deals with HEK293. In words: cells. The note with it: Homo sapiens.
The target of series [20] is T2, Cytochrome P450 3A4. This is another data set of the same source.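 Further: CYP3A4 tested as one member of a cytochrome P450 panel screen.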
Series [21] addresses T4, Heat shock factor protein 1 (Mus musculus, UniProt P38532).
T4 sequence (P38532 whole entry): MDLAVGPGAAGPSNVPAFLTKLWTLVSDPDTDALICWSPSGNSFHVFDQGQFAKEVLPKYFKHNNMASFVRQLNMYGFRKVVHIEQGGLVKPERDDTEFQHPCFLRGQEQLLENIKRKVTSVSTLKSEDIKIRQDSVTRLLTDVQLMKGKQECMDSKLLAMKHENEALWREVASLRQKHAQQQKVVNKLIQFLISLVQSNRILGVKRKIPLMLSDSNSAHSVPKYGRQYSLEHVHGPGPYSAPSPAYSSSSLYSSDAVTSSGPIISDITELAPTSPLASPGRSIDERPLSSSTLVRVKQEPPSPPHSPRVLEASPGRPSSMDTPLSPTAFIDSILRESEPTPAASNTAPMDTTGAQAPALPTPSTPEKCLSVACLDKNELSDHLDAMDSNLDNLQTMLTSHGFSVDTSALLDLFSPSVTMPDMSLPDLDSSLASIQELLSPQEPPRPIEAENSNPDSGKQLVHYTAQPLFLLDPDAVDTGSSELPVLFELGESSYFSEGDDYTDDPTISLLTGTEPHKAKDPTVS
As to the kind of experiment: decrease of HSF1-responsive luciferase luminescence – cell-based, NIH3T3, dose retest, confirmation (AID 2382).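 Further: NIH3T3 fibroblasts with HSF1-driven luciferase reporter stressed by proteasome inhibitor MG132; luminescence from HSF1-driven luciferase expression after 8 hours of MG132 stress.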 In kind it is functional.

A short description of series [22]: reduction of Shn3 3'UTR-driven luciferase in osteoblasts – cell-based, Clone20 osteoblasts, firefly luciferase, cherry-picked, dose response (AID 624132).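 Further: firefly luciferase luminescence from reporter carrying the Shn3 3'UTR in osteoblasts.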 In kind it is functional.
Series [23] is described as follows: non-specific 3'UTR reporter inhibition in Clone20-Shn3RL – cell-based, Renilla luciferase, cherry-picked, counter-screen for Shn3 inhibitor project, dose response (AID 624133). In kind it is functional.

Molecules are shown by their SMILES. Activity calls are given as the source filed them.

Chain of 5-hydroxytryptamine receptor 5A (P47898 whole entry): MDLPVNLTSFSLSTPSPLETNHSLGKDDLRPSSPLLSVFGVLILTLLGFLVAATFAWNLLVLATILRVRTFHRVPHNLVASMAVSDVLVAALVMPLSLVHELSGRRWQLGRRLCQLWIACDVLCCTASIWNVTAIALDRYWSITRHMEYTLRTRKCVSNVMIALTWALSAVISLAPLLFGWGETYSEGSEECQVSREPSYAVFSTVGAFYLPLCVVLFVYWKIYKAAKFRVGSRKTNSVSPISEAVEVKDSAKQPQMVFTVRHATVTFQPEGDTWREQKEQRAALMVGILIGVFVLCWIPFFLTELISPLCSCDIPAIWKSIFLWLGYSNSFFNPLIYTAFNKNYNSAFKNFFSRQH
Chain of Cytochrome P450 2D6 (P10635 whole entry): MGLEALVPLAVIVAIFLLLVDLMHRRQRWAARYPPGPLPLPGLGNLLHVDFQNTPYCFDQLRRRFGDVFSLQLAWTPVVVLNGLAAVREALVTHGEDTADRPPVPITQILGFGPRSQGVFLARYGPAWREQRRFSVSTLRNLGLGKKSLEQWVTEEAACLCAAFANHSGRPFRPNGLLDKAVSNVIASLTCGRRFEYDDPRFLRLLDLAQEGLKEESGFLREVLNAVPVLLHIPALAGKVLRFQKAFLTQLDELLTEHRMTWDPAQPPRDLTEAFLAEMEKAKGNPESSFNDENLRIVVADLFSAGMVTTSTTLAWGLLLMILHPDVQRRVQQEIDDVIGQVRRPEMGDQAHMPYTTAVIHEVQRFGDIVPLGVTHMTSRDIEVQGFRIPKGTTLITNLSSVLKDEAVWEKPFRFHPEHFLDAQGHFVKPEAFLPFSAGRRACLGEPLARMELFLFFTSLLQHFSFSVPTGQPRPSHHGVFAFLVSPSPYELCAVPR
Chain of Delta-type opioid receptor (P41143 whole entry): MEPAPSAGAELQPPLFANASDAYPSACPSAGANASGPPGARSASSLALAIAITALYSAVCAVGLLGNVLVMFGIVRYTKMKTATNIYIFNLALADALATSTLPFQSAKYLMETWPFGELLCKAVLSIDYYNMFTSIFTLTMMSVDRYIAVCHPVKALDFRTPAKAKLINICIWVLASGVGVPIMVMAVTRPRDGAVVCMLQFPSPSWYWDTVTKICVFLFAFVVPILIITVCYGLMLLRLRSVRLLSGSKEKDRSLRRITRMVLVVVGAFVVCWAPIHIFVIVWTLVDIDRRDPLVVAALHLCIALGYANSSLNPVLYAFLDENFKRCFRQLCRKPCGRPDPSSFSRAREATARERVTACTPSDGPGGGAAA
Chain of Mu-type opioid receptor (P35372 whole entry): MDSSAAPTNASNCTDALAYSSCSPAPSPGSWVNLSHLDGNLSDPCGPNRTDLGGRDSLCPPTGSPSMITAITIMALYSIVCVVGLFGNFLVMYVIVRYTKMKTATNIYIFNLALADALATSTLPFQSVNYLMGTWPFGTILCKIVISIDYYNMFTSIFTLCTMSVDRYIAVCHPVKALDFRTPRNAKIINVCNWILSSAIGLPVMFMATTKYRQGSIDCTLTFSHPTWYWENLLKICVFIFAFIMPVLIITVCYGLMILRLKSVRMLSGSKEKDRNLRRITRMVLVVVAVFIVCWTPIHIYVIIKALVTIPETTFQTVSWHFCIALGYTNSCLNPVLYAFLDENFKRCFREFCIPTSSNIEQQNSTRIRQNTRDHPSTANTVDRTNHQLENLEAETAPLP
T2 sequence (P08684 whole entry): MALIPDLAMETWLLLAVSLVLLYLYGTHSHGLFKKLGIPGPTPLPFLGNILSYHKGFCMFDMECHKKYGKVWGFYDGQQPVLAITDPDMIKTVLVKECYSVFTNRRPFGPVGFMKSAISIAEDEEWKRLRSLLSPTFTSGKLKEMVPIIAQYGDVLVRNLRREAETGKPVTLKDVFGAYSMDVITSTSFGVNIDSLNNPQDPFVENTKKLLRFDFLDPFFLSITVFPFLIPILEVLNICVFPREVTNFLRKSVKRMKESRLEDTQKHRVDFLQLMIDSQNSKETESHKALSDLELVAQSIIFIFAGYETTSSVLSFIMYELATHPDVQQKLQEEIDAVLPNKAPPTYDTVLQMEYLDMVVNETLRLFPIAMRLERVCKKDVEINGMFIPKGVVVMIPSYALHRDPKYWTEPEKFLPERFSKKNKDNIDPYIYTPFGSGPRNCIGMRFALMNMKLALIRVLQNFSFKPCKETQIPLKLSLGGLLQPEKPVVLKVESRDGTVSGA
Chain of Cytochrome P450 2C19 (P33261 whole entry): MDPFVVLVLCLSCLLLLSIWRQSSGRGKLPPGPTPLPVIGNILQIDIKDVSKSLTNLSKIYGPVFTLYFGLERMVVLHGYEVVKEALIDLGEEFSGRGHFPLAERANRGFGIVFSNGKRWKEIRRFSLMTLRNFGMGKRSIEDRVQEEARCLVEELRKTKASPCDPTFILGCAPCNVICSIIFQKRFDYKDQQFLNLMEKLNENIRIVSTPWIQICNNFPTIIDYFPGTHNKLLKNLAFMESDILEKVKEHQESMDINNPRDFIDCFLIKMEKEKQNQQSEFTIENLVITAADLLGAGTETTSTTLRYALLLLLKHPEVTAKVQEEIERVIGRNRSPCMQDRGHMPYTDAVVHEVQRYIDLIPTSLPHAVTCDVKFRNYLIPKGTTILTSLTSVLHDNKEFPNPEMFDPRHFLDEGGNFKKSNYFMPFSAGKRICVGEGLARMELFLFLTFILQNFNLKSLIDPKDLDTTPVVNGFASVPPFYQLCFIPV
Chain of Nucleotide-binding oligomerization domain-containing protein 2 (Q9HC29 whole entry, the tested form may be a part): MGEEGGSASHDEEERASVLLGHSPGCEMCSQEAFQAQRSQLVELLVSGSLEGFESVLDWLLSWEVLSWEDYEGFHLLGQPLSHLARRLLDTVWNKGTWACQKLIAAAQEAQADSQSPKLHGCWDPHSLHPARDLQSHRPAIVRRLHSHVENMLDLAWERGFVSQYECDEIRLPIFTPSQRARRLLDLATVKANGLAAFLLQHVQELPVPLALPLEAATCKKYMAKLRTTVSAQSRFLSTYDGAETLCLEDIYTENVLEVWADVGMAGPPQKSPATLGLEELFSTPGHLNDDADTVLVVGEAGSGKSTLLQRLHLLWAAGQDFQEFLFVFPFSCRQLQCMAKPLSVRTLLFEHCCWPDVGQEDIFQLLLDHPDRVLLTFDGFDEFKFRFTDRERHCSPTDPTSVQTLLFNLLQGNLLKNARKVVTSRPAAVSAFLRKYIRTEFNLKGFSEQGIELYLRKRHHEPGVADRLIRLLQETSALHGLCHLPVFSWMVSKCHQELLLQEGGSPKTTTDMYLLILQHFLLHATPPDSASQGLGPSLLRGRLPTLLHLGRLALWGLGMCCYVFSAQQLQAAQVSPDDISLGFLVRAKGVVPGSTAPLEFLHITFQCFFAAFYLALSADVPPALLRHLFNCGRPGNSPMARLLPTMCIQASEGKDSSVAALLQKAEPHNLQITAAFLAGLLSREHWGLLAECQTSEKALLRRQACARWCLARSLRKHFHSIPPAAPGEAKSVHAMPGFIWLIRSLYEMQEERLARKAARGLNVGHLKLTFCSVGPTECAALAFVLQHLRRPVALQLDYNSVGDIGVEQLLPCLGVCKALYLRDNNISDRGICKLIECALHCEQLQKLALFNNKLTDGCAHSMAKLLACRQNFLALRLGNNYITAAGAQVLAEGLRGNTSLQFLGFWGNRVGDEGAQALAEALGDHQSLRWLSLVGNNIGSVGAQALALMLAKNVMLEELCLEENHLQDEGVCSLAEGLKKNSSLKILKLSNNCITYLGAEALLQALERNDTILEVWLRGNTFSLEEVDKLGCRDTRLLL
Chain of Tumor necrosis factor (P01375 whole entry, the tested form may be a part): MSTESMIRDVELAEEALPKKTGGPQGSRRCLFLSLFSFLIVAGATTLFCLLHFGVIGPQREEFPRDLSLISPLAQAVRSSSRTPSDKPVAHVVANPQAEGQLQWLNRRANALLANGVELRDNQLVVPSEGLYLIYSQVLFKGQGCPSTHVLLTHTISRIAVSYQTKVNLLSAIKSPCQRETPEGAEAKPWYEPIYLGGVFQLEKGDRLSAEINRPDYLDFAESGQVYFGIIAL

In general, AC50 refers to the concentration giving half of the maximal activity seen. For the molecule `CC(C)n1nnc2ccccc2c1=O`, the AC50 in [1] (read-out: AC50) was 39.8 µM (inconclusive); in [2], 11.2 µM (inconclusive); in series [3], “inconclusive”; in [4], “inconclusive”.

What is called EC50 is the concentration that produces a half-maximal response. With `CN(C)C(CNC(=O)c1ccc(Br)cc1)c1ccco1` (centres undefined), the EC50 in series [5], in series [6] and in series [7] was > 92.5 µM (inactive) throughout.

What is called IC50 is the concentration at which inhibition is half-maximal. In the case of `COc1cc(C(=O)Nc2sc3c(c2C(=O)O)CCC(C)C3)cc(OC)c1OC` (centres undefined), the concentration for a half-maximal effect (EC50) was > 120 µM (not active) in series [8]; 4.16 µM (active) in [9]; > 120 µM (not active) in series [11]; 12.8 µM (active) in series [12]; 2.24 µM (active) in series [14]. The IC50 in series [10] is > 20 µM (inactive); in series [13] it was > 20 µM (inactive); in series [15] it was 9.76 µM (active); in [16] it was > 20 µM (inactive); in [17], 7.41 µM (active); in series [18] it was 5.19 µM (active). Also, the IC50 in series [19] was > 20 µM (inactive).

Turning to `CCOc1cc(CNCCO)c(Cl)cc1OCC(=O)NCCc1ccccc1`, the AC50 result in series [3] was “inconclusive”.

As for `COC(=O)c1cc(OC)c(OC)cc1N=C(S)N1CCN(C)CC1`, the AC50 in [2] was 11.2 µM (inconclusive); in [20], 14.1 µM (inconclusive); in series [3], “inconclusive”.

For the molecule `Cc1cccc(NC(=S)NC(=O)CCc2ccccc2)c1`, the EC50 in series [5], in series [6] and in [7] was > 92.5 µM (inactive) in each case. For the same molecule, the AC50 in series [20] is 25.1 µM (inconclusive).

Consider `COc1ccc(C(C)=O)c(OC(=O)c2ccco2)c1`, for which the AC50 in [1] (read-out: AC50) is 7.94 µM (inconclusive); in series [3] it was “inconclusive”.

With `O=C(O)CCC(=O)Nc1ccc(C(=O)N2CCCCC2)cc1`, the AC50 entry in series [1] and in [3] was “inconclusive” each time.

As for `Cc1cc(C(=O)COC(=O)c2ccccc2Br)c(C)n1CC1CCCO1` (centres undefined), the EC50 in series [9] is > 20 µM (inactive); in series [21], < 160 nM (active); in series [14] it was 0.46 µM (active). Besides, the IC50 is < 0.312 µM (active) in [10]; > 20 µM (inactive) in series [13]; 0.036 µM (active) in series [15]; > 20 µM (inactive) in [16]; 0.0456 µM (active) in [17]; 4.8 µM (active) in [18]. Also, in [19], the IC50 is > 20 µM (inactive). Moreover, the AC50 in [22] is > 70 µM (inactive); in series [23], 21.4 µM (active).

As for `COC(=O)C1=C(C)N(CCCC(=O)O)C(=O)NC1c1ccccc1OS(=O)(=O)c1ccccc1[N+](=O)[O-]` (centres undefined), the EC50 in [5] was 15.5 µM (inactive); in series [6], > 92.5 µM (inactive); in [7], > 92.5 µM (inactive).

For `COC(=O)C1=C(C)N(CCCC(=O)O)C(=O)NC1c1ccccc1OS(=O)(=O)c1ccc([N+](=O)[O-])cc1` (centres undefined), the EC50 in series [5] is 11.7 µM (inactive); in series [6], > 92.4 µM (inactive); in series [7], > 92.4 µM (inactive).
